Experimental data: patent US5668265A, “Bi-directional oligonucleotides that bind thrombin” (Becton Dickinson and Company, priority 1996, dated 1997)
pKd: −log10 of the molar value.

Key:
human α thrombin = experiment: Competitive binding assay on BIAcore (SPR) against immobilized consensus aptamer; conditions: for pKd: 80 nM human α thrombin, 25° C., pH 7.4, competition with immobilized consensus aptamer, read-out: Apparent Kd
Description: Competitive binding assays were used to determine the thrombin binding affinity of the various bi-directional oligonucleotides relative to the affinity of the known thrombin aptamer ^5' GGTTGGTGTGGTTGG^3' (SEQ ID NO:4) (hereafter called the "consensus" aptamer; Bock, L. C. et al, Nature 355, 564 (1992)). The assays were performed on a BIAcore™ biosensor instrument (Pharmacia Biosensor, Uppsala Sweden) by means of Surface Plasmon Resonance (SPR) detection of thrombin bound to consensus aptamer immobilized as described in U.S. patent application Ser. No. 0802,383, now abandoned, filed Aug. 5, 1993 incorporated herein by reference. Competition experiments were conducted at 25° C. by pre-incubating 80 nM human α thrombin for 30 minutes with various concentrations of the bi-directional oligonucleotide to be measured, in a buffer composed of 20 mM Tris-Acetate, 140 mM NaCl, 5 mM KCl, 1 mM CaCl2, 1 mM MgCl2 (pH 7.4). This solution was then passed over the surface containing immobilized consensus aptamer at a flow rate of 3 μL per minute for 10 minutes. The steady state response was measured as a function of bi-directional oligonucleotide concentration. The competition data were analyzed assuming that thrombin and the solution phase oligonucleotide bind monovalently and that thrombin molecules bound to a solution phase oligonucleotide are prohibited from binding to the immobilized consensus aptamer.
In this analysis, the steady state response in the presence of oligonucleotide is proportional to the surface concentration of bound thrombin, and apparent equilibrium dissociation constants (Kd 's) were determined from the variation in SPR response as a function of bi-directional oligonucleotide concentration. (Data were fit to eqn 31 of Pisarchick, M. L. and Thompson, N. L., Biophys J. 58, 1235, to yield the Kd values. In this analysis, it was assumed that the concentration nucleic acid ligand free in solution is equal to the total nucleic acid ligand concentration). The values determined are shown below (SEQ ID NO:4): […]

[1] = test system: 3'-exonuclease (Phosphodiestase I; C. adamanteus Venon); type: in vitro ADME; conditions: 0.005 units exonuclease, 37° C., pH 8.8; for Approximate Half-Life: estimated by visual inspection of autoradiogram
Description: It is expected that the 3'--3' linked oligonucleotides will show similar resistance to 3'-exonucleases found in
The various bi-directional nucleic acid ligands to be tested were first labeled with radioactive (^32 p) phosphate as follows:
200 pmol of each oligonucleotide was incubated at 37° C. for 30 minutes in 20 μl of a solution containing 3.0 mM Tricine (pH 7.6), 50 mM TRIS-HCl (pH8), 10 mM MgCl2, 5 mM DTT, 1.0 μM γ-^32 P-ATP (3000 Ci/mmol, 10 mCi/mL), 10 units T4 polynucleotide kinase (New England Biolabs). This labeling reaction was then terminated by heating the mixture at 95° C. for 3 minutes.
To test the resistance of the ^32 P-labeled oligonucleotides to the 3' exonuclease, the following reaction mixtures were assembled: Each bi-directional nucleic acid ligand (25 pmole) was dissolved in 100 μl containing 55 mM Tris-HCl, 55 mM NaCl, 7.5 mM MgCl2 (all at pH8.8). To this mixture 0.005 units of the exonuclease (Phosphodiestase I; C. adamanteus Venon; Pharmacia Biotech, Inc.) was added and the sample was mixed and incubated at 37° C. Five μL aliquots of each reaction were removed at 3, 10, 30, 60, and 100 minutes. The reactions were quenched by placing the aliquots into 25 μL solutions containing 50% (w/v) urea, 20 mM Na2 EDTA, and 0.05% bromophenol blue/zylene cylanol and heating the sample to 90° C. for 2 minutes. The reaction products were analyzed by electrophoretic separation on a denaturing polyacrylamide gel and subsequent autoradiagraphy of the gel.
The half-lives of the various bi-directional nucleic acid ligands under these conditions were estimated by visual inspection of autoradiogram (SEQ ID NO:4): […]

bovine thrombin = experiment: Clot time assay in platelet-poor porcine plasma with added thrombin; type: biochemical; conditions: room temperature, FIG. 2
Description: PPP was prepared by separating cells from […] by centrifugation of whole citrated porcine blood (Environmental Diagnostics Inc.). Approximately 0.5 ml of PPP was added to 12×75 mm polystyrene test tubes (FALCON, Becton Dickinson) and equilibrated to room temperature in a water bath for 15 minutes. Following equilibration, 25 μl of 250 μg/ml bovine thrombin (Sigma) in saline was added along with varying amounts of bi-directional nucleic acid ligand compounds prepared in Example 3 (specifically Compound #5 and Compound #9) in saline and sufficient saline diluent to bring the total volume to 0.6 ml. At this time 50 μl of 0.4M CaCl2 was added to initiate coagulation and the tubes were quickly capped. Tube contents were mixed on a laboratory inverting mixer and time of clotting noted for each tube type.

Substance	pKd (human α thrombin)	Approximate Half-Life [1] [min]	other results
5'-GGTTGGT-3' (DNA, backbone not given here) [a single copy of this sequence, reference compound]			thrombin affinity (in words) (human α thrombin; thrombin): does not have high affinity for thrombin
^3' GGTTGGTT^5' -p-^5' TTGGTTGG^3' [Compound 4]	7.60		
^5' GGTTGGTGTGGTTGG^3' [Compound 10, reference compound]	8.22	< 3	time to complete degradation by the 3'-exonuclease [1]: less than 3 minutes
^5' GGTTGGTG^3' -p-^3' TGGTTGG^5' [Compound 1]	6.65		
^5' GGTTGGTTG^3' -p-^3' TTGGTTGG^5' [Compound 3]	7.96	> 100	
^5' GGTTGGTT^3' (DNA, backbone not given here) [Compound 12, single oligonucleotide segment, control, reference compound]	5.82		
^5' GGTTGGTT^3' -L1 -^3' TTGGTTGG^5' (DNA, backbone not given here; two strands joined 3'-3' by hexaethylene glycol phosphodiester linker, further chemistry not fully specified) [Compound 6, 3'-3' bi-directional oligonucleotide linked through hexaethylene glycol phosphodiester]	8.00		thrombin affinity (in words) (human α thrombin; thrombin): high affinity for thrombin; inhibition of exogenous thrombin in plasma (clot time) (bovine thrombin): inhibits thrombin in porcine plasma
^5' GGTTGGTT^3' -p-^3' TTGGTTGG^5' [Compound 2]	6.51		
^5' GGTTGGT^3' -L1 -^3' TGGTTGG^5' (DNA, backbone not given here; two strands joined 3'-3' through linker L1, further chemistry not fully specified) [Compound 5, 3'-3' bi-directional oligonucleotide linked through hexaethylene glycol phosphodiester]	8.05	30	Ka (thrombin binding affinity) (human α thrombin; thrombin): > 10^7 M^-1; inhibition of exogenous thrombin in plasma (clot time) (bovine thrombin): inhibition of exogenous thrombin in plasma
